Five compounds from ChEMBL document CHEMBL5053501, “1,4,9-Triazaspiro[5.5]undecan-2-one Derivatives as Potent and Selective METTL3 Inhibitors” (J Med Chem, 2021) can be followed below.

The structures appear in SMILES notation. In brackets after ≈: the same amount, converted by molar mass. Activity calls are given as the source filed them. The rule behind the calls is not given here.

A short description of data set [1]: Metabolic stability in rat liver microsomes assessed as half life by LC-MS analysis. In kind it is ADME, Microsome.
The nature of data set [2]: Kinetic solubility of the compound in PBS at pH 7.4 at 100 uM incubated for 1 hr by LCMS/MS analysis. In kind it is physicochemical. Particulars: read-out: Kinetic_solubility.
Data set [3] deals with N6-adenosine-methyltransferase catalytic subunit (Homo sapiens, UniProt Q86U44). The data set is described as follows: Inhibition of recombinant […] (unknown origin) expressed in baculovirus infected Sf9 cells assessed as decrease in N6-methyladenosine level in oligonucleotide substrate by TR-FRET assay. (TR-FRET usually uses a lanthanide donor and a delayed reading to cut background.)
Chain of N6-adenosine-methyltransferase catalytic subunit (Q86U44 whole entry): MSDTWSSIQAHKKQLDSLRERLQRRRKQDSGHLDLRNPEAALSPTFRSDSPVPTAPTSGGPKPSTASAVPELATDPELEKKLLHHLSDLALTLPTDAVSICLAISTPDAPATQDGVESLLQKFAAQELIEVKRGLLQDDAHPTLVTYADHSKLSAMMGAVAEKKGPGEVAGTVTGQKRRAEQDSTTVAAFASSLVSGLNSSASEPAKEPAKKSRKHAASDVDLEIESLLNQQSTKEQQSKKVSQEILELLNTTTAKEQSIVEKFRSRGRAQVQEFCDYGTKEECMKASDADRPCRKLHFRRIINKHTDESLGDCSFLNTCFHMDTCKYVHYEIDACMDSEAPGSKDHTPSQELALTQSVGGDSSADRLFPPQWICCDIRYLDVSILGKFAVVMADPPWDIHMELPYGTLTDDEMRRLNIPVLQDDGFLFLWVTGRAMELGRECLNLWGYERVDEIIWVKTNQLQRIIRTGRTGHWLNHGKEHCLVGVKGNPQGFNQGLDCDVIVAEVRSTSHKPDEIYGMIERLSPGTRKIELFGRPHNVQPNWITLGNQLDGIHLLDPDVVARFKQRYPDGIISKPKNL

The target in data set [4] is T1, METTL3/METTL14 (Homo sapiens) (UniProt Q86U44+Q9HCE5). Particulars: dose 1000.0 µM.
Data set [5] is filed under the species Homo sapiens. The data set is described as follows: Binding affinity to human METTL1 assessed as change in melting temperature at 1000 uM by thermal shift assay.
The species named for data set [6] is Homo sapiens. The data set is described as follows: Binding affinity to human METTL16 assessed as change in melting temperature at 1000 uM by thermal shift assay.
The species entered for data set [7] is Homo sapiens. The data set is described as follows: Binding affinity to human METTL1 assessed as change in melting temperature at 100 uM by thermal shift assay.
Data set [8] has as its system MOLM-13. The data set is described as follows: Growth inhibition of human MOLM-13 cells assessed as cell viability measured after 3 days. Format: functional. Particulars: MOLM-13, 72 h, time 3 day.
Data set [9] concerns MOLM-13. The data set is described as follows: Reduction in m6A levels in mRNA fraction in human MOLM-13 cells at 10 uM measured after 6 days by UPLC-MS/MS analysis. Particulars: time 6.0 day. In kind it is functional, cell-based.
Data set [10] concerns MOLM-13. The data set is described as follows: Reduction in m7G levels in mRNA fraction in human MOLM-13 cells at 10 uM measured after 6 days by UPLC-MS/MS analysis. Format: functional, cell-based. Particulars: time 6.0 day.
Data set [11] has as its system PC-3. The data set is described as follows: Effect on METTL3 expression in human PC-3 cells at 10 uM incubated for 16 hrs by Western blotting analysis. Format: functional, cell-based.
The subject of data set [12] is MOLM-13. The data set is described as follows: Reduction in m1A levels in mRNA fraction in human MOLM-13 cells at 10 uM measured after 6 days by UPLC-MS/MS analysis. Format: functional, cell-based. The conditions noted are these: time 6.0 day.
Data set [13] deals with MOLM-13. The data set is described as follows: Reduction in m6A levels in total RNA fraction in human MOLM-13 cells at 10 uM measured after 6 days by UPLC-MS/MS analysis. Format: functional, cell-based. The conditions noted are these: time 6.0 day.
Data set [14] relates to MOLM-13. The data set is described as follows: Reduction in m6Am levels in total RNA fraction in human MOLM-13 cells at 10 uM measured after 6 days by UPLC-MS/MS analysis. Format: functional, cell-based. Particulars: time 6.0 day.
The species entered for data set [15] is Homo sapiens. The data set is described as follows: Binding affinity to human METTL16 assessed as change in melting temperature at 100 uM by thermal shift assay.
Data set [16] has as its target T1, METTL3/METTL14 (Homo sapiens). Particulars: dose 100.0 µM.
In data set [17] the test system is MOLM-13. The data set is described as follows: Effect on METTL3 expression in human MOLM-13 cells at 10 uM incubated for 16 hrs by Western blotting analysis. In kind it is functional, cell-based. In general terms: In western blotting, separated proteins are transferred to a membrane and probed.
The nature of data set [18]: Reduction in m6A/A ratio in poly-adenylated RNA fraction of human MOLM-13 cells measured after 16 hrs by UPLC-MS/MS analysis. In kind it is functional, cell-based.
Data set [19] relates to PC-3. The data set is described as follows: Growth inhibition of human PC-3 cells assessed as cell viability measured after 3 days. Format: functional. The conditions noted are these: PC-3, 72 h, time 3 day.

By half-life is commonly meant the time in which the quantity being followed falls by half. Turning to `CC1(C)CCN(Cc2ccc(N3CC(=O)NC4(CCN(c5nc(Cl)nc6[nH]ccc56)CC4)C3)cc2)CC1`, the half-life in data set [1] came to 32 min. For the same compound, the solubility kinetic at 1 h, 100 µM in data set [2] stood at 45 µM (≈ 23.5 µg/mL).
On the same counts, the results for `CNc1cc(N2CC3(CN(c4ccc(CN5CCC(C)(C)CC5)cc4)CC(=O)N3)C2)ncn1` are 70 min and 86 µM (≈ 38.7 µg/mL).
The IC50 is the point on the concentration scale where inhibition reaches its midpoint. As a reminder, the ΔTm is the shift of the melting midpoint relative to a reference. As for `Nc1ncnc2c1ncn2[C@@H]1O[C@H](CSCC[C@H](N)C(=O)O)[C@@H](O)[C@H]1O` [S-ADENOSYLHOMOCYSTEINE], the concentration for half-maximal inhibition (IC50) in data set [3] is 0.59 µM. Besides, the ΔTm is 3.7 °C in data set [4], 6.3 °C in data set [5] and 0.8 °C in data set [6].
In general, GI50 refers to the concentration giving 50% growth inhibition. Usually EC50 stands for the concentration that produces a half-maximal response. With `CNc1cc(N2CCC3(CC2)CN(c2cc(F)c(CN4CCC(C)(C)CC4)cc2F)CC(=O)N3)ncn1`, the deltaTm entry in [7] and in data set [15] was “inactive” in each case. Moreover, the 50% growth inhibitory concentration (GI50) in data set [8] is 12 µM; in data set [19], 70 µM. Moreover, the outcome in data set [9], in data set [11], in [13], in data set [14] and in [17] was Active. The outcome in data set [10] and in [12] was inactive. In addition, in data set [16], the thermal shift (ΔTm) was found to be 4.7 °C. Besides, the EC50 in data set [18] came to 0.7 µM.
As for `CNc1cc(N2CCCC(O)(CNC(=O)c3ccc(CN4CCC(C)(C)CC4)cc3)C2)ncn1` (configuration not stated), in [3], the half-maximal inhibitory concentration (IC50) turned out to be 7 µM.
